According to patent publication US20200131156A1, “ARYLSULFONYLPYROLECARBOXAMIDE DERIVATIVES AS Kv3 POTASSIUM CHANNEL ACTIVATORS” (H. Lundbeck A/S, priority 2018, published 2020):

Target: T1, human Kv3.3 (Homo sapiens, UniProt Q14003)
T1 construct: expressed in transfected cells
T1 sequence (Q14003 1-757): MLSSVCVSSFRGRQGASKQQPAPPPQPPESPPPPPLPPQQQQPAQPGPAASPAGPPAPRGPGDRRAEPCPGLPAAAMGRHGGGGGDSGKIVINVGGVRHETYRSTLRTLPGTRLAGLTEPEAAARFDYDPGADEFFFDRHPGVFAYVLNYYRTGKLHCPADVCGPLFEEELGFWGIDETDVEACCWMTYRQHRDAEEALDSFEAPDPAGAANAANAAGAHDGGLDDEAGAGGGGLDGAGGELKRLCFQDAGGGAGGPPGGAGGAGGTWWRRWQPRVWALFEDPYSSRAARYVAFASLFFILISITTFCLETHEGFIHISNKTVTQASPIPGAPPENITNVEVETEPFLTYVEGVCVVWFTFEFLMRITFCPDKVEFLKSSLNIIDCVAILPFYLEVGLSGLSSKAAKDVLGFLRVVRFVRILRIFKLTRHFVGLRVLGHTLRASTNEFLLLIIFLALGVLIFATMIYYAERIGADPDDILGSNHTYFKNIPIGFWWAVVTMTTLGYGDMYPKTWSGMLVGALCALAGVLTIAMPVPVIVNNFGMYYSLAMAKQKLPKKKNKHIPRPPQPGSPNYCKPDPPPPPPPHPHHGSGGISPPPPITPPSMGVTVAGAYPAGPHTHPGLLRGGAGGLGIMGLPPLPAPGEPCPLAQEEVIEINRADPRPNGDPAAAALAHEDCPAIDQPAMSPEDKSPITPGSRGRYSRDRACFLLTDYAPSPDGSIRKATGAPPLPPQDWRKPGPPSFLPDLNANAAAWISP
Test: Manual patch clamp electrophysiology, HEK-293 cells stably expressing human Kv3.3
Format: cell-based
Conditions: for hKv3.3 ECΔ30% increase: concentration increasing current by 30% at the −10 mV step; for hKv3.3 ECΔ5 mV: concentration that shifts activation threshold by 5 mV
Experimental: Manual Patch Clamp Electrophysiological Evaluation, hKv3.1, hKv3.2, hKv3.3, hKv3.4:
HEK-293 cells stably expressing human Kv3.1b, Kv3.2, Kv3.3 or Kv3.4 were used for the experiments.
Kv3.1b, Kv3.2: Cells were cultured in MEM medium supplemented with 10% Fetal Bovine Serum, 1% Penicillin/Streptomycin, 2 mM glutamine and 0.6 mg/mL geneticin. Cells were grown to 80-90% confluency at 37° C. and 5% CO2 Kv3.3 or Kv3.4: Cells were cultured in DMEM medium supplemented with 10% Fetal Bovine Serum, 500 ug/mL Geneticidin and 1% Penicillin/Streptomycin. Cells were grown to 80-90% confluency at 37° C. and 5% CO2.
On the day of the experiment the cells were detached by TrypLE and resuspended in culture medium. Cells were centrifuged, media removed and the cells were resuspended in extracellular buffer containing (in mM): 130 Na-gluconate, 20 NaCl, 4 KCl, 1 MgCl2, 1.8 CaCl2, 10 HEPES and 5 glucose, pH 7.3 adjusted with NaOH, 310-320 mOsm
Patch-clamp recordings were performed using a manual patch-clamp system (Axon Multiclamp 700B, Digidata 1440, pCLAMP 10, Molecular Devices Corporation) with a fast perfusion system (RSC-160 Rapid solution Changer, BioLogic). Whole-cell recordings were carried out using an intracellular solution containing (in mM): 100 K-gluconate, 40 KCl, 10 HEPES, 1 EGTA, 1 MgCl2, pH 7.2 adjusted with KOH, 290-300 mOsm. Cell membrane potentials were held at −80 mV and current voltage-relationship was generated by voltage steps (50 ms duration) from −100 mV to +10 mV (in 10 mV increments) and then back to −100 mV for 50 ms, with inter-sweep interval of 3 s. The peak current amplitude of −10 mV was monitored until stable (<5% change) by using one step voltage protocol. One IV protocol was run as baseline, then compound perfusion was stared and peak current stability was monitored with single step protocol prior to the IV protocol. Single concentrations were measured per cell. Acceptable cells had seal resistance >500 MOhm, Access resistance <10 MOhm, and leak current <200 pA.
Data analysis was performed using Clampfit (V10.2) in combination with Microsoft Excel™ (Redmond, Wash., USA). Current voltage relationships were plotted from the peak current (baseline subtracted) at the individual voltage steps normalized to the vehicle addition at 10 mV. The voltage threshold for channel activation was defined as 5% activation of the peak current at 10 mV in presence of vehicle. […] The concentration needed to shift the threshold 5 mV was readout from this curve (ECΔ5 mV), as well as the ability to increase the peak current at the −10 mV step (EC30% increase). […]

Row | hKv3.3 ECΔ30% increase | hKv3.3 ECΔ5 mV | SMILES
1 | >30 µM | 4.9 µM | Cc1ccc(S(=O)(=O)n2ccc(C(=O)NCc3ncco3)c2)cc1 [Compound 86, 1-(4-methylbenzene-1-sulfonyl)-N-[(1,3-oxazol-2-yl)methyl]-1H-pyrrole-3-carboxamide]
2 | 2.7 µM | 2.7 µM | Cc1cnc(CNC(=O)c2ccn(S(=O)(=O)c3ccc(F)cc3C)c2)cn1 [Compound 90, 1-(4-fluoro-2-methylbenzene-1-sulfonyl)-N-[(5-methylpyrazin-2-yl)methyl]-1H-pyrrole-3-carboxamide]
